We go through three compounds from patent US8614218B2, “Fused bicyclic pyrimidines” (Bayer Intellectual Property GmbH, priority 2007, dated 2013).

What all share (format): cell-based
The test system of experiment [1] is phospho-GSK3 (Ser9). The experiment in a line: Cellular pGSK3 assay (phospho-GSK3 ELISA). The following applies: Homo sapiens, MCF7 cells, 48 h incubation, read-out: Cellular pGSK3 pathway assay. The method, then: In order to study the cellular activity of the compounds according to the present invention, an ELISA-based assay has been established for the phosphorylated protein glycogen synthetase kinase 3 (GSK3). The assay is based on a solid phase sandwich ELISA that detects endogenous levels of phosphorylated GSK3 using a phospho-GSK3 (Ser9) specific antibody (BioSource International, Inc.; Catalog #KHO0461). After incubation with cell lysates, the coated antibody captures the phosphorylated GSK3 protein. Following extensive washing, GSK3 polyclonal antibody is added to detect the captured phospho-GSK3 protein. Secondary antibody (anti-rabbit IgG-HRP) is then used to recognize the bound detection antibody. After the second incubation and washing to remove all the excess anti-rabbit IgG-HRP, a substrate solution is added, which is acted upon by the bound enzyme to produce color. The intensity of this colored product is directly proportional to the concentration of GSK-3β [pS9] present in the original specimen. MCF7 cells (ATCC HTB-22) were seeded into 96 well fate bottom plates at a density of 10000 cells/well. After 24 h 1 μl each of the compound dilutions (test compounds were dissolved as 10 mM solutions in dimethylsulfoxide (DMSO) and subsequently diluted) were added into each well of the 96 well plates and incubated for 48 h at 37° C. in a humidified atmosphere containing 5% CO2. Cells were harvested and lysed in cell extraction buffer (10 mM Tris, pH 7.4, 100 mM NaCl, 1 mM EDTA, 1 mM EGTA, 1 mM NaF, 20 mM Na4P2O7, 2 mM Na3VO4, 1% Triton X-100, 10 vol % glycerol, 0.1 vol % SDS, 0.5 vol % deoxycholate, 1 mM phenylmethylsulfonylfluoride (PMSF)). The lysate were centrifuged for 10 min. at 4° C. and the supernatant were transferred to a new tube. 50 μl of sample diluent (standard diluent buffer, Biosource) were added and 100 μl of cell lysate transferred into the tube and vortexed. 100 μl of each diluted cell lysate were added to the appropriate ELISA well plate and incubated for 3 h at room temperature. The plates were washed 4 times with 1× wash buffer (Biosource). 50 μl of detection antibody (GSK3 (Ser9) detection antibody; BioSource) were added to each well and incubated for 30 min. at room temperature. The washing procedure was repeated between each step. 100 μl of HRP-linked secondary antibody (anti-mouse IgG HRP-linked antibody) were added to each well and incubated for 30 min. at room temperature. 100 μl of TMB substrate (0.05 vol % 3,3′,5,5′ tetramethylbenzidine, 0.1 vol % hydrogen peroxide, complex polypeptides in a buffered solution; Biosource) were added to each well and incubated for 30 min. at room temperature. Finally 100 μl of Stop solution (0.05 vol % α and β unsaturated carbonyl compound) were added to each well and the plate were shaked gently for a few seconds. The absorbance was measured at λ=450 nm (Wallac Victor2; Perkin Elmer, USA) within 30 min. after adding the stop solution.
The analysis of the data was performed using a statistical program (Excel; Microsoft, USA) and the IC50 of pGSK3 inhibition was determined.
(An ELISA detects its analyte on a solid surface through an enzyme-linked reagent.)

For experiment [2], the system named is A549 cells. The experiment in a line: Cellular proliferation/cytotoxicity assay (Alamar Blue), A549. The following applies: Homo sapiens, 72 h, Alamar Blue (Resazurin), read-out: Anti-proliterative/Cytotoxic activity (A549 cells). The gist of the method:
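OvCAR3 (10000 cells/well) or A549 (2000 cells/well) were dosed 24 h after seeding and exposed for 72 h at 37 °C, 5% CO2, in duplicate or more. Resazurin was added for 4 h and fluorescence read at 544/590 nm. Viability is relative to untreated 0.5% DMSO controls, with IC50 by non-linear regression.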
For orientation: The colour change of resazurin is a common sign of viable cells or microbes.

In experiment [3] the test system is phospho-Akt (Ser473). The experiment in a line: Cellular PI3K/Akt pathway assay (phospho-Akt ELISA). Conditions: Homo sapiens, MCF7 cells, β-Heregulin stimulated, 48 h incubation. The text has this: Cellular PI3K/Akt Pathway Assay
In order to study the cellular activity of the compounds according to the present invention, an Enzyme Linked Immunosorbent Assay (ELISA)-based assay has been used specific phospho-AKT. The assay is based on a Sandwich ELISA kit (PathScan™ Phospho-Akt1 (Ser473); Cell Signaling, USA; #7160). The ELISA Kit detects endogenous levels of phosphorylated Akt protein. A phospho-Akt (Ser473) antibody (Cell Signaling, USA; #9271) has been coated onto the microwells. After incubation with cell lysates, the coated antibody captures the phosphorylated Akt protein. Following extensive washing, Akt1 monoclonal antibody (Cell Signaling, USA; #2967) is added to detect the captured phospho-Akt1 protein. HRP-linked anti-mouse antibody (HRP: horseradish peroxidase; Cell Signaling, USA; #7076) is then used to recognize the bound detection antibody. HRP substrate (=3,3′,5,5′-tetramethylbenzidine (TMB); Cell Signaling, USA; #7160) is added to develop colour. The magnitude of optical density for this developed color is proportional to the quantity of phosphorylated Akt protein.
MCF7 cells (ATCC HTB-22) are seeded into 96 well fate bottom plates at a density of 10000 cells/well. 24 hours after seeding, the cells are serum starved using low-serum medium (IMEM media including 0.1% charcoal treated FCS (FCS: fetal calf serum)). After 24 hours 1 μl each of the compound dilutions (test compounds were dissolved as 10 mM solutions in dimethylsulfoxide (DMSO) and subsequently diluted) are added into each well of the 96 well plates and incubated for 48 h at 37° C. in a humidified atmosphere containing 5% CO2. To stimulate Akt phosphorylation, β-Heregulin (20 ng/ml β-HRG) is added in parallel to the compounds. Wells containing unstimulated control cells (no β-Heregulin stimulation) are incubated with or without the diluted compound. Wells containing untreated control cells (no compound) are filled with medium containing 0.5% v:v DMSO and are or are not stimulated with β-Heregulin.
Cells are harvested and lysed with brief sonification in 1× cell lysis buffer (20 mM Tris (pH7.5), 150 mM NaCl, 1 mM ethylene diaminetetraacetate (EDTA), 1 mM ethylene glycolbis(2-aminoethyl)-N,N,N′,N′-tetraacetic acid (EGTA), 1 vol % Triton X-100, 2.5 mM sodium pyrophosphate, 1 mM β-glycerolphosphate, 1 mM Na3VO4, 1 μg/ml leupeptin). The lysate is centrifuged for 10 min. at 4° C. and the supernatant is transferred to a new tube. 100 μl of sample diluent (0.1 vol % Tween-20, 0.1 vol % sodium azide in phosphate buffered saline (PBS)) are added to a microcentrifuge tube and 100 μl of cell lysate are transferred into the tube and vortexed. 100 μl of each diluted cell lysate are added to the appropriate ELISA well, and incubated overnight at 4° C. The plates are washed 4 times with 1× wash buffer (1 vol % tween-20, 0.33 vol % thymol, in PBS). Next 100 μl of detection antibody (Akt1 (2H10) monoclonal detection antibody; Cell Signaling, USA; #2967) are added to each well and incubation continued for 1 h at 37° C. The washing procedure is repeated between each step. 100 μl of secondary antibody (anti-mouse IgG HRP-linked antibody; Cell Signaling, USA; #7076) are added to each well and incubated for 30 min. at 37° C. Than, 100 μl of TMB substrate (0.05% 3,3′,5,5′ tetramethylbenzidine, 0.1% hydrogen peroxide, complex polypeptides in a buffered solution; Cell Signaling, USA; #7160) are added to each well and incubated for 30 min. at 25° C. Finally 100 μl of STOP solution (0.05 vol % α and β unsaturated carbonyl compound) are added to each well and the plate are shaked gently. The absorbance is measured at λ=450 nm (Wallac Victor2; Perkin Elmer, USA) within 30 min. after adding the STOP solution. The analysis of the data is performed using a statistical program (Excel; Microsoft, USA). Preferred compounds show an inhibitory activity towards Akt phosphorylation below 10 μM.

Consider `COc1c(-c2ccccc2)c(-c2ccc(CN3CCC(c4n[nH]c(-c5ccccn5)n4)CC3)cc2)nc2ccnn12` [Example 29, 7-Methoxy-6-phenyl-5-(4-{[4-(5-pyridin-2-yl-1H-1,2,4-triazol-3-yl)piperidin-1-yl]methyl}phenyl)pyrazolo[1,5-a]pyrimidine], for which the IC50 in experiment [1] is 1 to 10 µM; in experiment [2], over 10 µM.

On to `Cc1c(-c2ccccc2)c(-c2ccc(CN3CCC(c4n[nH]c(-c5ccccn5)n4)CC3)cc2)nc2nccn12` [Example 27, 5-methyl-6-phenyl-7-(4-{[4-(5-pyridin-2-yl-1H-1,2,4-triazol-3-yl)piperidin-1-yl]methyl}phenyl)imidazo[1,2-a]pyrimidine], for which the IC50 in experiment [3] was over 10 µM; in experiment [1], 1 to 10 µM.

For `CC(C)c1nc2nc(-c3ccc(CN4CCC(c5n[nH]c(-c6ccccn6)n5)CC4)cc3)c(-c3ccccc3)cn2n1` [Example 28, 2-Isopropyl-6-phenyl-5-(4-{[4-(5-pyridin-2-yl-1H-1,2,4-triazol-3-yl)piperidin-1-yl]methyl}phenyl)[1,2,4]triazolo[1,5-a]pyrimidine], the IC50 in experiment [1] is 1 to 10 µM; in experiment [2] it was under 10 µM.
